In patent US20120142609A1, “NON HUMAN ANIMAL MODELS FOR INCREASED RETINAL VASCULAR PERMEABILITY” (priority 2009, published 2012):

System: Müller glial cells
Test: Osmotic Müller cell swelling in acutely isolated retinal slices under hypotonic challenge
Type: cell-based, mouse
Conditions: for effect on osmotic swelling of Müller cells (FIG. 3C): hypotonic challenge
Method: Müller cell swelling: To determine volume changes of Müller glial cells evoked by hypotonic stress, the cross-sectional area of glial cell somata in the inner nuclear layer of retinal slices was measured. Acutely isolated slices (thickness, 1 mm) were prepared from untreated control eyes and from the detached retinal area of operated eyes from C57BL/6 and Dp71-null mice, placed in a perfusion chamber and loaded with the vital dye Mitotracker Orange (10 μM). This dye is selectively taken up by Müller glial cells whereas retinal neurons, astrocytes, and microglial cells remain unstained. The stock solution of the dye was prepared in dimethylsulfoxide and resolved in saline. The slices were examined with a confocal laser scanning microscope LSM 510 Meta (Zeiss, Oberkochen, Germany). Mitotracker Orange was excited at 543 nm, and emission was recorded with a 560 nm long-pass filter. To assure that the maximum soma areas were precisely recorded, the focal plane was continuously adjusted in the course of the experiments.
A gravity-fed system with multiple reservoirs was used to perfuse the recording chamber continuously with extracellular solution; the hypotonic solution and test substances were added by rapid change of the perfusate. The extracellular solution consisted of (in mM) […], 3 KCl, 2 CaCl2, 1 MgCl2, 10 HEPES, and 11 glucose, adjusted to pH 7.4 with Tris. The hypotonic solution (60% of control osmolarity) was made up by adding distilled water. BaCl2 (1 mM) was preincubated for 10 minutes in extracellular solution before application within hypotonic solution. Blocking substances were preincubated for 15 to 45 minutes, and adenosine was administered simultaneously with the hypotonic solution. Swelling experiments were performed at room temperature.
To determine the extent of glial soma swelling, the cross-sectional area of Mitotracker Orange-stained cell bodies in the inner nuclear layer of retinal slices was measured off-line using the image analysis software of the LSM. Bar diagrams display the mean (+SEM) cross-sectional area of cell somata that was measured after 4-minute perfusion with hypotonic solution, in percent of the soma area measured before osmotic challenge (100%).

[1] = control retina from Dp71-null mice

O=C(CBr)c1ccc(Br)cc1 [4-bromophenacyl bromide]
cross-sectional area of Müller cell somata after 4-minute perfusion with hypotonic solution, in percent of the soma area before osmotic challenge (Müller cells from Dp71-null mice, 300 μM, preincubated, hypotonic solution 60% of control osmolarity): 103.3±2.1% | effect on osmotic swelling of Müller cells (FIG. 3C) [1]: blocked the swelling

[Ba+2].[Cl-].[Cl-] [Ba^2+, barium chloride]
effect on Müller cell soma area under hypotonic challenge (FIG. 3B) [1]: no effect | effect on Müller cell soma area under hypotonic challenge (FIG. 3B) (control retina from wt mice): induced a swelling | cross-sectional area of Müller cell somata after 4-minute perfusion with hypotonic solution, in percent of the soma area before osmotic challenge (slices from control retinas of C57BL/6 (wt) mice, BaCl2 1 mM, 102.0±1.0% without Ba2+): 111.5±1.6% | cross-sectional area of Müller cell somata after 4-minute perfusion with hypotonic solution, in percent of the soma area before osmotic challenge (untreated Dp71-null mice, BaCl2 1 mM, 118.0±2.3% without Ba2+): 122.3+3.6%

Nc1ncnc2c1ncn2[C@@H]1O[C@H](CO)[C@@H](O)[C@H]1O [adenosine]
effect on osmotic swelling of Müller cells (FIG. 3C) [1]: blocked the swelling | cross-sectional area of Müller cell somata after 4-minute perfusion with hypotonic solution, in percent of the soma area before osmotic challenge (untreated retinas from Dp71-null mice, adenosine 10 μM applied with the hypotonic solution (60% of control osmolarity), 120.3±3.8% without adenosine): 103.2±2.2%

COc1ccc2c(c1)c(CC(=O)O)c(C)n2C(=O)c1ccc(Cl)cc1 [indomethacin]
cross-sectional area of Müller cell somata after 4-minute perfusion with hypotonic solution, in percent of the soma area before osmotic challenge (Müller cells from Dp71-null mice, 10 μM, preincubated, hypotonic solution 60% of control osmolarity): 104.4±1.6% | effect on osmotic swelling of Müller cells (FIG. 3C) [1]: blocked the swelling
